Measured values: US6737383B1, “Herbicidal oxadiazolidines” (priority 1999, dated 2004)

How the values were obtained:
morningglory = assay: Test B pre/postemergence morningglory; type: in vivo, Ipomoea hederacea
In short: (§1)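 Response is a visual 0-to-10 score relative to untreated plants, where 0 means no effect and 10 means complete control, taken twelve to sixteen days after application. Treatments went onto soil at planting and onto foliage of 1- to 4-leaf plants, using a surfactant-containing non-phytotoxic solvent.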

bamyardgrass = assay: Test B flood test barnyardgrass; type: in vivo, Echinochloa crus-galli
In short: (§2)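 Flood test on plants grown to the 2-leaf stage; treated plants kept in greenhouse twelve to sixteen days, then visually rated against controls on a 0 (no effect) to 10 (complete control) scale.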

smallflower flatsedge = assay: Test B flood test smallflower flatsedge; type: in vivo, Cyperus difformis
In short: as §2

giant foxtail = assay: Test B pre/postemergence giant foxtail; type: in vivo, Setaria faberii
In short: as §1

velvetleaf = assay: Test B pre/postemergence velvetleaf; type: in vivo, Abutilon theophrasti
In short: as §1

cocklebur = assay: Test B pre/postemergence cocklebur; type: in vivo, Xanthium strumarium
In short: as §1

duck salad = assay: Test B flood test duck salad; type: in vivo, Heteranthera limosa
In short: as §2

blackgrass = assay: Test B pre/postemergence blackgrass; type: in vivo, Alopecurus myosuroides
In short: as §1

wheat = assay: Test B pre/postemergence wheat; type: in vivo, Triticum aestivum
In short: as §1

rice = assay: Test B flood test rice; type: in vivo, Oryza sativa
In short: as §2

surinam grass = assay: Test B pre/postemergence surinam grass; type: in vivo, Brachiaria decumbens
In short: as §1

purple nutsedge = assay: Test B pre/postemergence purple nutsedge; type: in vivo, Cyperus rotundus
In short: as §1

wild oat = assay: Test B pre/postemergence wild oat; type: in vivo, Avena fatua
In short: as §1

corn = assay: Test B pre/postemergence corn; type: in vivo, Zea mays
In short: as §1

crabgrass = assay: Test B pre/postemergence crabgrass; type: in vivo, Digitaria sanguinalis
In short: as §1

soybean = assay: Test B pre/postemergence soybean; type: in vivo, Glycine max
In short: as §1

bedstraw = assay: Test B pre/postemergence bedstraw; type: in vivo, Galium aparine
In short: as §1

[1] = Postemergence, Rate 62 g/ha, scale 0 to 10, 0 is no effect, 10 is complete control
[2] = Postemergence, Rate 125 g/ha, scale of 0 to 10 where 0 is no effect and 10 is complete control
[3] = Postemergence, Rate 250 g/ha, scale of 0 to 10, 0 is no effect, 10 is complete control
[4] = Postemergence, Rate 500 g/ha, scale of 0 to 10 where 0 is no effect and 10 is complete control
[5] = Preemergence, Rate 62 g/ha, scale 0 to 10 (0 no effect, 10 complete control)
[6] = Preemergence, Rate 125 g/ha, scale of 0 to 10 where 0 is no effect and 10 is complete control
[7] = Preemergence, Rate 250 g/ha, scale 0 to 10 (0 no effect, 10 complete control)
[8] = Preemergence, Rate 500 g/ha, scale of 0 to 10 where 0 is no effect and 10 is complete control
[9] = Rate 62 g/ha, flood test species, Pre-emergence, visual evaluation after twelve to sixteen days
[10] = Rate 125 g/ha, under heading Pre-emergence, flood test species, visual evaluation after twelve to sixteen days
[11] = Rate 250 g/ha, Pre-emergence (flood test species), scale 0 to 10, 0 is no effect, 10 is complete control
[12] = Rate 500 g/ha, Pre-emergence section of Table B, 0 to 10 scale (0 no effect, 10 complete control)

## CC(C)N(C(=O)n1oc(=O)n(CC2CCCCO2)c1=O)c1ccc(F)cc1 (stereo not drawn) [Compound 624]
morningglory; [1]
  Plant response rating, Morningglory: 1
morningglory; [2]
  Plant response rating, Morningglory: 1
morningglory; [3]
  Morningglory plant response rating: 1
morningglory; [4]
  Plant response rating, Morningglory: 2
morningglory; [5]
  Morningglory plant response rating: 0
morningglory; [6]
  Morningglory plant response rating: 0
morningglory; [7]
  Plant response rating, Morningglory: 0
morningglory; [8]
  Plant response rating, Morningglory: 0
bamyardgrass; [9]
  Plant response rating, Barnyardgrass (0 to 10 scale, 0 is no effect, 10 is complete control): 0
bamyardgrass; [10]
  Barnyardgrass plant response rating (0 to 10 scale, 0 is no effect, 10 is complete control): 0
bamyardgrass; [11]
  Barnyardgrass plant response rating: 0
bamyardgrass; [12]
  Barnyardgrass plant response rating: 0
Smallflower flatsedge; [9]
  Plant response rating, S. Flatsedge (0 to 10 scale, 0 is no effect, 10 is complete control): 0
Smallflower flatsedge; [10]
  S. Flatsedge plant response rating (0 to 10 scale, 0 is no effect, 10 is complete control): 0
Smallflower flatsedge; [11]
  S. Flatsedge plant response rating: 0
Smallflower flatsedge; [12]
  S. Flatsedge plant response rating: 0
Giant foxtail; [1]
  Plant response rating, Giant foxtail: 4
Giant foxtail; [2]
  Plant response rating, Giant foxtail: 8
Giant foxtail; [3]
  Giant foxtail plant response rating: 8
Giant foxtail; [4]
  Plant response rating, Giant foxtail: 9
Giant foxtail; [5]
  Giant foxtail plant response rating: 10
Giant foxtail; [6]
  Giant foxtail plant response rating: 10
Giant foxtail; [7]
  Plant response rating, Giant foxtail: 10
Giant foxtail; [8]
  Plant response rating, Giant foxtail: 10
velvetleaf; [1]
  Plant response rating, Velvetleaf: 0
velvetleaf; [2]
  Plant response rating, Velvetleaf: 0
velvetleaf; [3]
  Velvetleaf plant response rating: 0
velvetleaf; [5]
  Velvetleaf plant response rating: 0
velvetleaf; [6]
  Velvetleaf plant response rating: 0
velvetleaf; [7]
  Plant response rating, Velvetleaf: 1
velvetleaf; [8]
  Plant response rating, Velvetleaf: 8
cocklebur; [1]
  Plant response rating, Cocklebur: 0
cocklebur; [2]
  Plant response rating, Cocklebur: 0
cocklebur; [3]
  Cocklebur plant response rating: 2
cocklebur; [4]
  Plant response rating, Cocklebur: 6
cocklebur; [5]
  Cocklebur plant response rating: 0
cocklebur; [6]
  Cocklebur plant response rating: 0
cocklebur; [7]
  Plant response rating, Cocklebur: 0
cocklebur; [8]
  Plant response rating, Cocklebur: 0
Duck salad; [9]
  Plant response rating, Ducksalad (0 to 10 scale, 0 is no effect, 10 is complete control): 0
Duck salad; [10]
  Ducksalad plant response rating (0 to 10 scale, 0 is no effect, 10 is complete control): 0
Duck salad; [11]
  Ducksalad plant response rating: 0
Duck salad; [12]
  Ducksalad plant response rating: 0
blackgrass; [1]
  Plant response rating, Blackgrass: 4
blackgrass; [2]
  Plant response rating, Blackgrass: 5
blackgrass; [3]
  Blackgrass plant response rating: 8
blackgrass; [4]
  Plant response rating, Blackgrass: 9
blackgrass; [5]
  Blackgrass plant response rating: 1
blackgrass; [6]
  Blackgrass plant response rating: 8
blackgrass; [7]
  Plant response rating, Blackgrass: 8
blackgrass; [8]
  Plant response rating, Blackgrass: 9
wheat; [1]
  Plant response rating, Wheat: 0
wheat; [2]
  Plant response rating, Wheat: 0
wheat; [3]
  Wheat plant response rating: 0
wheat; [5]
  Wheat plant response rating: 0
wheat; [6]
  Wheat plant response rating: 0
wheat; [7]
  Plant response rating, Wheat: 6
wheat; [8]
  Plant response rating, Wheat: 7
rice; [9]
  Plant response rating, Rice (0 to 10 scale, 0 is no effect, 10 is complete control): 0
rice; [10]
  Rice plant response rating (0 to 10 scale, 0 is no effect, 10 is complete control): 0
rice; [11]
  Rice plant response rating: 0
rice; [12]
  Rice plant response rating: 0
Surinam grass; [1]
  Plant response rating, B. signalgrass: 4
Surinam grass; [2]
  Plant response rating, B. signalgrass: 7
Surinam grass; [3]
  B. signalgrass plant response rating: 7
Surinam grass; [4]
  Plant response rating, B. signalgrass: 8
Surinam grass; [5]
  B. signalgrass plant response rating: 3
Surinam grass; [6]
  B. signalgrass plant response rating: 6
Surinam grass; [7]
  Plant response rating, B. signalgrass: 6
Surinam grass; [8]
  Plant response rating, B. signalgrass: 8
Purple nutsedge; [1]
  Plant response rating, Nutsedge: 0
Purple nutsedge; [2]
  Plant response rating, Nutsedge: 0
Purple nutsedge; [3]
  Nutsedge plant response rating: 0
Purple nutsedge; [4]
  Plant response rating, Nutsedge: 3
Purple nutsedge; [5]
  Nutsedge plant response rating: 0
Purple nutsedge; [6]
  Nutsedge plant response rating: 0
Purple nutsedge; [7]
  Plant response rating, Nutsedge: 0
Purple nutsedge; [8]
  Plant response rating, Nutsedge: 0
Wild oat; [1]
  Plant response rating, Wild oats: 0
Wild oat; [2]
  Plant response rating, Wild oats: 0
Wild oat; [3]
  Wild oats plant response rating: 0
Wild oat; [5]
  Wild oats plant response rating: 2
Wild oat; [6]
  Wild oats plant response rating: 6
Wild oat; [7]
  Plant response rating, Wild oats: 6
Wild oat; [8]
  Plant response rating, Wild oats: 6
corn; [1]
  Plant response rating, Corn: 0
corn; [2]
  Plant response rating, Corn: 0
corn; [3]
  Corn plant response rating: 2
corn; [4]
  Plant response rating, Corn: 5
corn; [5]
  Corn plant response rating: 0
corn; [6]
  Corn plant response rating: 0
corn; [7]
  Plant response rating, Corn: 2
corn; [8]
  Plant response rating, Corn: 6
crabgrass; [1]
  Plant response rating, Crabgrass: 6
crabgrass; [2]
  Plant response rating, Crabgrass: 7
crabgrass; [3]
  Crabgrass plant response rating: 7
crabgrass; [5]
  Crabgrass plant response rating: 7
crabgrass; [7]
  Plant response rating, Crabgrass: 9
crabgrass; [8]
  Plant response rating, Crabgrass: 9
soybean; [1]
  Plant response rating, Soybean: 2
soybean; [2]
  Plant response rating, Soybean: 3
soybean; [3]
  Soybean plant response rating: 7
soybean; [5]
  Soybean plant response rating: 0
soybean; [6]
  Soybean plant response rating: 0
soybean; [7]
  Plant response rating, Soybean: 3
soybean; [8]
  Plant response rating, Soybean: 7
bedstraw; [1]
  Plant response rating, Bedstraw: 0
bedstraw; [5]
  Bedstraw plant response rating: 0
bedstraw; [6]
  Bedstraw plant response rating: 0
bedstraw; [7]
  Plant response rating, Bedstraw: 0
bedstraw; [8]
  Plant response rating, Bedstraw: 3
